In US6958231B2, “Variants of Erwinia-type creatinase” (Roche Diagnostics Operations, Inc., priority 2001, dated 2005):
Substitutions are numbered along the chain they refer to.

What was measured:
[1] = target: T1, Erwinia sp. (DSM 97-934) creatinase variant CTsd2, N130D, M203V, I278T, F395L, SEQ ID NO: 20 (Shinella sumterensis, UniProt A0AA50CTE0, F395L/I278T/M203V/N130D); experiment: Km determination of creatinase variant with creatine (coupled enzymatic assay); format: biochemical; details: in words, CTsd2 vs wild type Erwinia creatinase
T1 construct: variant CTsd2
T1 sequence (A0AA50CTE0 1-404 N130D/M203V/I278T/F395L): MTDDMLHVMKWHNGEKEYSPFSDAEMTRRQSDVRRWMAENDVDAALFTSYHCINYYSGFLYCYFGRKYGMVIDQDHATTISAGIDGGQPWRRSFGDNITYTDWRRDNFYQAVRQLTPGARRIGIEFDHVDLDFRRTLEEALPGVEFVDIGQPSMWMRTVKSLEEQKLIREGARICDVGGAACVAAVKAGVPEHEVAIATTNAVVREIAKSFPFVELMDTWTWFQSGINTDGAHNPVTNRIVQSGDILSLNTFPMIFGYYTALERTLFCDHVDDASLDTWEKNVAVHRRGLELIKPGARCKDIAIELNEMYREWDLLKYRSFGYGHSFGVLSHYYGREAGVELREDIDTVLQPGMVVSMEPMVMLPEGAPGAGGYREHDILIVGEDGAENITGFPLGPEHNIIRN
Method: (§1) The activity assay for creatinase and its variants was performed by using creatine as substrate and a coupled enzymatic reaction according to Guder, W. G., et al., J Clin Chem Clin Biochem 24 (1986) 889-902.
(§2) The reaction mixture was set up by combining the following reagents:
(§3) The assay for creatinase was carried out at 25° C. and at the wavelength of 546 nm for 10 min. ΔE was calculated from the measurement points of 6 to 10 min.
(§4) For KM determination, creatinase activity was determined according to the assay procedure described in Example 3 using six different concentrations of creatine substrate: 90 mM, 45 mM, 22.5 mM, 11.3 mM, 5.6 miM and 2.8 mM.

[2] = target: T2, Erwinia sp. (DSM 97-934) creatinase variant CTsd7, F59W, N130D, M203V, I278T, F395L, SEQ ID NO: 22 (Shinella sumterensis, UniProt A0AA50CTE0, F395L/F59W/I278T/M203V/N130D); experiment: as above; format: biochemical; details: in words, CTsd7 vs wild type Erwinia creatinase
T2 construct: variant CTsd7
T2 sequence (A0AA50CTE0 1-404 F59W/N130D/M203V/I278T/F395L): T1 sequence (A0AA50CTE0 1-404 N130D/M203V/I278T/F395L) with F59W
Method: as §1, §2, §3, §4

[3] = test system: creatinase from Pseudomonas putida; details: in words; cited from earlier work

In the case of `CN(CC(=O)O)C(=N)N` [creatine], the “Km value compared to wild type” value [1] is listed as “much lower”, the “Km value compared to wild type” value [2] is listed as “much lower” and the Km value [3] is listed as “rather high”.
